≈ marks a conversion by molar mass, not a printed value. Read-outs that look alike come from different tables or passages of the source.
Tests used:
HIV-1 (IIIB) = assay: microbe, parasite or virus in culture; assay type: cell-based; details: Human immunodeficiency virus 1, IIIB, MT4, read-out: IC50 HIV-1 (IIIB)
[1] = system: thymidine kinase-deficient (TK−) varicella-zoster virus (YS/R); assay: microbe, parasite or virus in culture; assay type: cell-based
HIV-2 (LAV-2) = assay: Inhibition of HIV-2 cytopathogenicity in MT4 cells; assay type: cell-based, human immunodeficiency virus; details: Human immunodeficiency virus 2, MT4, read-out: IC50 HIV-2 (LAV-2)
[2] = Solubility in water (phosphate buffer, UV absorbance); details: 0.10 m phosphate buffer, pH 6.8, aqueous buffer, thermodynamic from solid
[3] = system: Snake venom phosphodiesterase; assay: Activity of snake venom phosphodiesterase against nucleotide analogs; details: pH 9.2, 37° C., 8 h
[4] = target: T1, calf mucosal adenosine deaminase (ADA, EC 3.5.4.4) (Bos taurus, UniProt P56658); assay: Substrate activity and competitive inhibition of adenosine deaminase; assay type: biochemical
T1 sequence (P56658 1-363): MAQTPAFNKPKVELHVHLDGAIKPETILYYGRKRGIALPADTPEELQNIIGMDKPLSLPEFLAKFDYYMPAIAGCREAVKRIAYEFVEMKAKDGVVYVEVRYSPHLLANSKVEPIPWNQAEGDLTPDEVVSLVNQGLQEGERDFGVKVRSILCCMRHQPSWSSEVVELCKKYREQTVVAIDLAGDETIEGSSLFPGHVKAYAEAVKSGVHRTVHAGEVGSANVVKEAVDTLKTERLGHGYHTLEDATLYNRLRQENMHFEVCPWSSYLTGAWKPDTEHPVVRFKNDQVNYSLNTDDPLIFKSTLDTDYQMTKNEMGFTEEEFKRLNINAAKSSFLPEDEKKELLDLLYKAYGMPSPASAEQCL

[5] = system: human cytomegalovirus (AD-169); assay: Inhibition of HCMV cytopathogenicity in Vero cell culture; assay type: cell-based
HSV-1 (KOS) = assay: Anti-HSV-1 activity in vivo, HSV-1-induced mortality in NMRI mice; details: 6 days; for mean day of animal death / mean day of symptom initiation: terminated day 21; for responders at 100 mg/kg / responders at 150 mg/kg / responders at 250 mg/kg: Human alphaherpesvirus 1, ip, 504 h
[6] = Lipophilicity, 1-octanol/water partition coefficient; details: 1-octanol/phosphate buffer
[7] = system: moloney murine sarcoma virus (MSV); assay: Inhibition of MSV cytopathogenicity in CEM cells (cell-protection assay); assay type: cell-based; details: Moloney murine sarcoma virus, CCRF-CEM, read-out: IC50 MSV
[8] = system: herpes simplex type 1 virus (HSV-1) (KOS); assay: Inhibition of HSV-1 cytopathogenicity in Vero cell culture; assay type: cell-based
PRPP synthetase = PRPP synthetase (UniProt P0A717); assay: PRPP synthetase reaction, conversion to diphosphates and inhibition of AMP phosphorylation; assay type: biochemical; details: compound as substrate of PRPP synthetase
Experimental: Enzymatic Conversion of Acyclic Nucleoside Phosphonates and Nucleotide 5′-Monophosphate Analog to Their Antivirally Active Diphosphates (Triphosphate Equivalents). Substrate affinities of acyclic nucleoside phosphonates 4, 20, 21, and dinucleotide analog 24 for PRPP synthetase as well as their inhibitory effect against the enzyme were evaluated according to the established procedures. See, e.g., Balzarini et al. (1991) J. Biol. Chem. 266: 8686-8689 and references cited therein. The assays were then terminated after 4 h by the addition of MeOH. HPLC on an anion-exchange Partisphere column was used to analyze the formation of […] 21pp, PMEApp, 4pp, 20pp, and 24pp.

[9] = system: thymidine kinase-positive (TK+) varicella-zoster virus (YS); assay: Inhibition of TK+ VZV cytopathogenicity in Vero cell culture; assay type: cell-based; details: Vero cell culture; 50% inhibition of cytopathogenicity; for 1:1 mixtures IC50 refers to known antiviral drugs
[10] = system: herpes simplex type 2 virus (HSV-2) (G); assay: Inhibition of HSV-2 cytopathogenicity in Vero cell culture; assay type: cell-based; details: 50% inhibition of cytopathogenicity, for 1:1 mixtures IC50 refers to known antiviral drugs
[11] = Vero cell culture, 50% inhibition of cytopathogenicity, for 1:1 mixtures IC50 refers to known antiviral drugs

SMILES: Nc1ncnc2c1ncn2[C@@H]1O[C@H](COP(=O)(O)O)[C@@H](OP(=O)(O)COCCn2cnc3ncnc(N)c32)[C@H]1O [Compound 24, 9-[5′-O-(phosphono)-β-D-furanosyl]adenine-3′-[[1-(adenin-7-yl-ethoxy)methyl]phosphonate]]
- IC50 (HIV-1 (IIIB)): 5.9 µg/mL (≈ 9.79 µM)
- IC50 ([1]; Human alphaherpesvirus 3, Vero, read-out: IC50 TK−VZV (YS/R)): 4.2 µg/mL (≈ 6.97 µM)
- IC50 (HIV-2 (LAV-2)): 6.4 µg/mL (≈ 10.6 µM)
- solubility at 20 h [2]: 3080 µg/mL (≈ 5110 µM)
- yield of 5′-dephosphorylated product with snake venom phosphodiesterase [3]: about 80%
- Vmax less than that of ara-A 3 ([4]; ADA substrate): about 95%
- type of ADA inhibition in words ([4]; ara-A used as substrate): competitive inhibition
- rel. Vmax ([4]; compound as ADA substrate, relative to ara A 3 = 1.0): 9.78 × 10^−2
- Ki ([4]; inhibition of ADA with ara-A 3 as substrate): 99.7 µM
- IC50 ([5]; Human betaherpesvirus 5, AD169, Vero, read-out: IC50 HCMV (AD-169)): 11 µg/mL (≈ 18.3 µM)
- mean day of animal death (HSV-1 (KOS); 100 mg/kg/day i.p.): 19.5 ± 1.2 days
- mean day of symptom initiation (HSV-1 (KOS); 100 mg/kg/day i.p.): 16.0 ± 1.7 days
- protection against HSV-induced mortality (HSV-1 (KOS); 150 mg/kg dose level i.p.): full protection
- mean day of animal death (HSV-1 (KOS); 150 mg/kg/day i.p.): >21 days
- mean day of symptom initiation (HSV-1 (KOS); 150 mg/kg/day i.p.): 19.3 ± 1.6 days
- mean day of animal death (HSV-1 (KOS); 250 mg/kg/day i.p.): >21 days
- mean day of symptom initiation (HSV-1 (KOS); 250 mg/kg/day i.p.): >21 days
- responders at 100 mg/kg (HSV-1 (KOS); 100 mg/kg/day i.p., read-out: percentage of HSV-1-infected mice alive at day 21 postinfection): 90%
- responders at 100 mg/kg (HSV-1 (KOS); 100 mg/kg/day i.p., read-out: percentage of HSV-1-infected mice without symptoms at day 21 postinfection): 70%
- responders at 150 mg/kg (HSV-1 (KOS); 150 mg/kg/day i.p., read-out: percentage of HSV-1-infected mice alive at day 21 postinfection): 100%
- responders at 150 mg/kg (HSV-1 (KOS); 150 mg/kg/day i.p., read-out: percentage of HSV-1-infected mice without symptoms at day 21 postinfection): 85%
- responders at 250 mg/kg (HSV-1 (KOS); 250 mg/kg/day i.p., read-out: percentage of HSV-1-infected mice alive at day 21 postinfection): 100%
- responders at 250 mg/kg (HSV-1 (KOS); 250 mg/kg/day i.p., read-out: percentage of HSV-1-infected mice without symptoms at day 21 postinfection): 100%
- logP at […] [6]: 0.12
- IC50 [7]: 17 µg/mL (≈ 28.2 µM)
- IC50 ([8]; Human alphaherpesvirus 1, Vero, read-out: IC50 HSV-1 (KOS)): 7 µg/mL (≈ 11.6 µM)

SMILES: Nc1ncnc2c1ncn2[C@@H]1O[C@H](COP(=O)(O)O)[C@@H](O)[C@H]1O [AMP 21, adenosine 5′-monophosphate, reference compound]
- Km (PRPP synthetase): 240 µM

SMILES: Nc1ncnc2ncn(COCCCl)c12 [Compound 12, 7-[(2-Chloroethoxy)methy]adenine]
- IC50 TK−VZV (YS/R) [1, 11]: >128 µg/mL
- IC50 HCMV (AD-169) [5, 11]: >128 µg/mL
- IC50 TK+VZV (YS) [9]: >128 µg/mL
- HeLa cell, concentration causing microscopically visible change or disruption in about 50% of the cell sheet (HeLa cells): 169 µg/mL
- Vero cell, concentration causing microscopically visible change or disruption in about 50% of the cell sheet (Vero cells): 165 µg/mL
- IC50 HSV-2 (G) [10]: >128 µg/mL
- IC50 HSV-1 (KOS) ([8]; Vero cell culture, 50% inhibition of virus-induced cytopathogenicity, mean of duplicates, for 1:1 (W/W) mixtures IC50 refers to known antiviral drugs): >128 µg/mL

Reference: patent publication US6825348B2, “Antiviral compounds” (Academia Sinica, priority 2002, dated 2004)
